In brackets after ≈: the same amount, converted by molar mass.
What was measured:
[1] = system: Aspergillus flavus; experiment: (§1) Synergistic antifungal activity against Aspergillus flavus ATCC 16870 assessed as fungal growth inhibition incubated for 24 hrs in the presence of N-(3-chloro-4-fluorophenyl)-4-(6-methoxy-2-oxo-1,2-dihydrospiro[benzo[d][1,3]oxazine-4,4'-piperidin]-1'-yl)-4-oxobut-2-enamide by broth dilution based checkerboard method; type: functional
[2] = system: Aspergillus flavus; experiment: Antifungal activity against Aspergillus flavus ATCC 16870 assessed as fungal growth inhibition incubated for 24 hrs by CLSI protocol based broth microdilution method; type: functional
[3] = system: Candida albicans; experiment: Synergistic antifungal activity against Candida albicans ATCC 76615 assessed as fungal growth inhibition incubated for 24 hrs in the presence of 4-(6-methoxy-2-oxo-1,2-dihydrospiro[benzo[d][1,3]oxazine-4,4'-piperidin]-1'-yl)-N-(2-methoxy-4-nitrophenyl)-4-oxobut-2-enamide by broth dilution based checkerboard method; type: functional
[4] = system: Aspergillus flavus; experiment: Synergistic antifungal activity against Aspergillus flavus ATCC 16870 assessed as fungal growth inhibition incubated for 24 hrs in the presence of N-(2-chlorophenyl)-4-(6-methoxy-2-oxo-1,2-dihydrospiro[benzo[d][1,3]oxazine-4,4'-piperidin]-1'-yl)-4-oxobut-2-enamide by broth dilution based checkerboard method; type: functional
[5] = system: Candida albicans; experiment: Synergistic antifungal activity against Candida albicans ATCC 76615 assessed as fungal growth inhibition incubated for 24 hrs in the presence of N-(3-chloro-4-fluorophenyl)-4-(6-methoxy-2-oxo-1,2-dihydrospiro[benzo[d][1,3]oxazine-4,4'-piperidin]-1'-yl)-4-oxobut-2-enamide by broth dilution based checkerboard method; type: functional
[6] = system: Candida albicans; experiment: Antifungal activity against fluconazole-resistant Candida albicans ATCC 76615R assessed as fungal growth inhibition; type: functional
[7] = system: Cryptococcus neoformans; experiment: as §1, with “Cryptococcus neoformans” for “Aspergillus flavus”, “208821” for “16870”; type: functional
[8] = system: Candida albicans; experiment: Antifungal activity against Candida albicans ATCC 76615 assessed as fungal growth inhibition incubated for 24 hrs by CLSI protocol based broth microdilution method; type: functional
[9] = system: Cryptococcus neoformans; experiment: Antifungal activity against fluconazole-resistant Cryptococcus neoformans ATCC 208821R assessed as fungal growth inhibition; type: functional
[10] = system: Aspergillus flavus; experiment: (§2) Synergistic antifungal activity against Aspergillus flavus ATCC 16870 assessed as fungal growth inhibition incubated for 24 hrs in the presence of 4-(6-methoxy-2-oxo-1,2-dihydrospiro[benzo[d][1,3]oxazine-4,4'-piperidin]-1'-yl)-N-(4-methoxyphenyl)-4-oxobut-2-enamide by broth dilution based checkerboard method; type: functional
[11] = system: Candida albicans; experiment: Synergistic antifungal activity against Candida albicans ATCC 76615 assessed as fungal growth inhibition incubated for 24 hrs in the presence of N-(4-bromophenyl)-4-(6-methoxy-2-oxo-1,2-dihydrospiro[benzo[d][1,3]oxazine-4,4'-piperidin]-1'-yl)-4-oxobut-2-enamide by broth dilution based checkerboard method; type: functional
[12] = system: Aspergillus flavus; experiment: (§3) Synergistic antifungal activity against Aspergillus flavus ATCC 16870 assessed as fungal growth inhibition incubated for 24 hrs in the presence of 4-(6-methoxy-2-oxo-1,2-dihydrospiro[benzo[d][1,3]oxazine-4,4'-piperidin]-1'-yl)-N-(2-methoxy-4-nitrophenyl)-4-oxobut-2-enamide by broth dilution based checkerboard method; type: functional
[13] = system: Aspergillus fumigatus; experiment: as §2, with “fumigatus GIMCC 3.19” for “flavus ATCC 16870”; type: functional
[14] = system: Cryptococcus neoformans; experiment: Synergistic antifungal activity against Cryptococcus neoformans ATCC 208821 assessed as fungal growth inhibition incubated for 24 hrs in the presence of 4-(6-methoxy-2-oxo-1,2-dihydrospiro[benzo[d][1,3]oxazine-4,4'-piperidin]-1'-yl)-4-oxo-N-phenylbut-2-enamide by broth dilution based checkerboard method; type: functional
[15] = system: Aspergillus fumigatus; experiment: as §3, with “fumigatus GIMCC 3.19” for “flavus ATCC 16870”; type: functional
[16] = system: Aspergillus fumigatus; experiment: Synergistic antifungal activity against Aspergillus fumigatus GIMCC 3.19 assessed as fungal growth inhibition incubated for 24 hrs in the presence of N-(4-bromophenyl)-4-(6-methoxy-2-oxo-1,2-dihydrospiro[benzo[d][1,3]oxazine-4,4'-piperidin]-1'-yl)-4-oxobut-2-enamide by broth dilution based checkerboard method; type: functional
[17] = system: Aspergillus flavus; experiment: Synergistic antifungal activity against Aspergillus flavus ATCC 16870 assessed as fungal growth inhibition incubated for 24 hrs in the presence of N-(4-bromophenyl)-4-(6-methoxy-2-oxo-1,2-dihydrospiro[benzo[d][1,3]oxazine-4,4'-piperidin]-1'-yl)-4-oxobut-2-enamide by broth dilution based checkerboard method; type: functional
[18] = system: Aspergillus fumigatus; experiment: Antifungal activity against Aspergillus fumigatus GIMCC 3.19 assessed as fungal growth inhibition incubated for 24 hrs by CLSI protocol based broth microdilution method; type: functional
[19] = system: Candida albicans; experiment: Synergistic antifungal activity against Candida albicans ATCC 76615 assessed as fungal growth inhibition incubated for 24 hrs in the presence of 4-(6-methoxy-2-oxo-1,2-dihydrospiro[benzo[d][1,3]oxazine-4,4'-piperidin]-1'-yl)-4-oxo-N-phenylbut-2-enamide by broth dilution based checkerboard method; type: functional
[20] = system: Cryptococcus neoformans; experiment: Synergistic antifungal activity against Cryptococcus neoformans ATCC 208821 assessed as fungal growth inhibition incubated for 24 hrs in the presence of N-(2-chlorophenyl)-4-(6-methoxy-2-oxo-1,2-dihydrospiro[benzo[d][1,3]oxazine-4,4'-piperidin]-1'-yl)-4-oxobut-2-enamide by broth dilution based checkerboard method; type: functional
[21] = system: Aspergillus fumigatus; experiment: Synergistic antifungal activity against Aspergillus fumigatus GIMCC 3.19 assessed as fungal growth inhibition incubated for 24 hrs in the presence of N-(2-chlorophenyl)-4-(6-methoxy-2-oxo-1,2-dihydrospiro[benzo[d][1,3]oxazine-4,4'-piperidin]-1'-yl)-4-oxobut-2-enamide by broth dilution based checkerboard method; type: functional
[22] = system: Cryptococcus neoformans; experiment: Synergistic antifungal activity against Cryptococcus neoformans ATCC 208821 assessed as fungal growth inhibition incubated for 24 hrs in the presence of 4-(6-methoxy-2-oxo-1,2-dihydrospiro[benzo[d][1,3]oxazine-4,4'-piperidin]-1'-yl)-N-(4-methoxyphenyl)-4-oxobut-2-enamide by broth dilution based checkerboard method; type: functional
[23] = system: Aspergillus flavus; experiment: Synergistic antifungal activity against Aspergillus flavus ATCC 16870 assessed as fungal growth inhibition incubated for 24 hrs in the presence of 4-(6-methoxy-2-oxo-1,2-dihydrospiro[benzo[d][1,3]oxazine-4,4'-piperidin]-1'-yl)-4-oxo-N-phenylbut-2-enamide by broth dilution based checkerboard method; type: functional
[24] = system: Aspergillus fumigatus; experiment: Synergistic antifungal activity against Aspergillus fumigatus GIMCC 3.19 assessed as fungal growth inhibition incubated for 24 hrs in the presence of N-(3-chloro-4-fluorophenyl)-4-(6-methoxy-2-oxo-1,2-dihydrospiro[benzo[d][1,3]oxazine-4,4'-piperidin]-1'-yl)-4-oxobut-2-enamide by broth dilution based checkerboard method; type: functional
[25] = system: Candida albicans; experiment: Synergistic antifungal activity against Candida albicans ATCC 76615 assessed as fungal growth inhibition incubated for 24 hrs in the presence of N-(2-chlorophenyl)-4-(6-methoxy-2-oxo-1,2-dihydrospiro[benzo[d][1,3]oxazine-4,4'-piperidin]-1'-yl)-4-oxobut-2-enamide by broth dilution based checkerboard method; type: functional
[26] = system: Candida albicans; experiment: Synergistic antifungal activity against Candida albicans ATCC 76615 assessed as fungal growth inhibition incubated for 24 hrs in the presence of 4-(6-methoxy-2-oxo-1,2-dihydrospiro[benzo[d][1,3]oxazine-4,4'-piperidin]-1'-yl)-N-(4-methoxyphenyl)-4-oxobut-2-enamide by broth dilution based checkerboard method; type: functional
[27] = system: Cryptococcus neoformans; experiment: Synergistic antifungal activity against Cryptococcus neoformans ATCC 208821 assessed as fungal growth inhibition incubated for 24 hrs in the presence of 4-(6-methoxy-2-oxo-1,2-dihydrospiro[benzo[d][1,3]oxazine-4,4'-piperidin]-1'-yl)-N-(2-methoxy-4-nitrophenyl)-4-oxobut-2-enamide by broth dilution based checkerboard method; type: functional
[28] = system: Aspergillus fumigatus; experiment: Synergistic antifungal activity against Aspergillus fumigatus GIMCC 3.19 assessed as fungal growth inhibition incubated for 24 hrs in the presence of 4-(6-methoxy-2-oxo-1,2-dihydrospiro[benzo[d][1,3]oxazine-4,4'-piperidin]-1'-yl)-4-oxo-N-phenylbut-2-enamide by broth dilution based checkerboard method; type: functional
[29] = system: Cryptococcus neoformans; experiment: Antifungal activity against Cryptococcus neoformans ATCC 208821 assessed as fungal growth inhibition incubated for 24 hrs by CLSI protocol based broth microdilution method; type: functional
[30] = system: Cryptococcus neoformans; experiment: Synergistic antifungal activity against Cryptococcus neoformans ATCC 208821 assessed as fungal growth inhibition incubated for 24 hrs in the presence of N-(4-bromophenyl)-4-(6-methoxy-2-oxo-1,2-dihydrospiro[benzo[d][1,3]oxazine-4,4'-piperidin]-1'-yl)-4-oxobut-2-enamide by broth dilution based checkerboard method; type: functional
[31] = system: Aspergillus flavus; experiment: Synergistic antifungal activity against Aspergillus flavus ATCC 16870 assessed as fractional inhibitory concentration index incubated for 24 hrs in the presence of fluconazole by broth dilution based checkerboard method; type: functional
[32] = system: Aspergillus flavus; experiment: Antifungal activity against Aspergillus flavus ATCC 16870 assessed as disruption of fungal wall by measuring fungal growth incubated for 24 hrs in the presence of sorbitol; type: functional
[33] = system: Candida albicans; experiment: Synergistic antifungal activity against Candida albicans ATCC 76615 assessed as fractional inhibitory concentration index incubated for 24 hrs in the presence of fluconazole by broth dilution based checkerboard method; type: functional
[34] = system: Cryptococcus neoformans; experiment: Synergistic antifungal activity against Cryptococcus neoformans ATCC 208821 assessed as fractional inhibitory concentration index incubated for 24 hrs in the presence of fluconazole by broth dilution based checkerboard method; type: functional
[35] = system: Cryptococcus neoformans; experiment: Synergistic antifungal activity against Cryptococcus neoformans ATCC 208821 assessed as fungal growth inhibition incubated for 24 hrs in the presence of fluconazole by broth dilution based checkerboard method; type: functional
[36] = system: Candida tropicalis; experiment: Inhibition of Candida tropicalis ATCC 750 chitin synthase using UDP-GlcNAc as substrate at 300 ug/ml incubated for 1 hrs by absorbance based assay relative to control; settings: dose 300.0 µg/ml
[37] = system: Aspergillus flavus; experiment: Synergistic antifungal activity against Aspergillus flavus ATCC 16870 assessed as fungal growth inhibition incubated for 24 hrs in the presence of fluconazole by broth dilution based checkerboard method; type: functional
[38] = system: Cryptococcus neoformans; experiment: Antifungal activity against Cryptococcus neoformans ATCC 208821 assessed as disruption of fungal wall by measuring fungal growth incubated for 24 hrs in the presence of sorbitol; type: functional
[39] = system: Aspergillus fumigatus; experiment: Synergistic antifungal activity against Aspergillus fumigatus GIMCC 3.19 assessed as fractional inhibitory concentration index incubated for 24 hrs in the presence of fluconazole by broth dilution based checkerboard method; type: functional
[40] = system: Aspergillus fumigatus; experiment: Synergistic antifungal activity against Aspergillus fumigatus GIMCC 3.19 assessed as fungal growth inhibition incubated for 24 hrs in the presence of fluconazole by broth dilution based checkerboard method; type: functional
[41] = system: Candida albicans; experiment: Synergistic antifungal activity against Candida albicans ATCC 76615 assessed as fungal growth inhibition incubated for 24 hrs in the presence of fluconazole by broth dilution based checkerboard method; type: functional
[42] = system: Aspergillus fumigatus; experiment: Antifungal activity against Aspergillus fumigatus GIMCC 3.19 assessed as disruption of fungal wall by measuring fungal growth incubated for 24 hrs in the presence of sorbitol; type: functional
[43] = Inhibition of Candida tropicalis ATCC 750 chitin synthase using UDP-GlcNAc as substrate incubated for 1 hrs by absorbance based assay

## OC(Cn1cncn1)(Cn1cncn1)c1ccc(F)cc1F [FLUCONAZOLE]
[1]
  MIC: 16 µg/mL
[2]
  MIC: 16 µg/mL (≈ 52.2 µM)
[3]
  MIC: 16 µg/mL
[4]
  MIC: 16 µg/mL
[5]
  MIC: 16 µg/mL
[6]
  MIC: 256 µg/mL (≈ 836 µM)
[7]
  MIC: 4 µg/mL
[8]
  MIC: 16 µg/mL (≈ 52.2 µM)
[9]
  MIC: 256 µg/mL (≈ 836 µM)
[10]
  MIC: 16 µg/mL
[11]
  MIC: 4 µg/mL
[12]
  MIC: 16 µg/mL
[13]
  MIC: 16 µg/mL
[14]
  MIC: 16 µg/mL
[15]
  MIC: 16 µg/mL
[16]
  MIC: 16 µg/mL
[17]
  MIC: 32 µg/mL
[18]
  MIC: 16 µg/mL (≈ 52.2 µM)
[19]
  MIC: 8 µg/mL
[20]
  MIC: 4 µg/mL
[21]
  MIC: 16 µg/mL
[22]
  MIC: 16 µg/mL
[23]
  MIC: 8 µg/mL
[24]
  MIC: 4 µg/mL
[25]
  MIC: 4 µg/mL
[26]
  MIC: 16 µg/mL
[27]
  MIC: 16 µg/mL
[28]
  MIC: 4 µg/mL
[29]
  MIC: 32 µg/mL (≈ 104 µM)
[30]
  MIC: 16 µg/mL

## COc1ccc2c(c1)C1(CCN(C(=O)/C=C/C(=O)Nc3ccc([N+](=O)[O-])cc3OC)CC1)OC(=O)N2
[31]
  fractional inhibitory concentration index (FICI): 1.37
[2]
  MIC: 42.7 µg/mL (≈ 85.9 µM)
[8]
  MIC: 128 µg/mL (≈ 258 µM)
[32]
  MIC: > 512 µg/mL
[33]
  fractional inhibitory concentration index (FICI): 1.13
[18]
  MIC: 64 µg/mL (≈ 129 µM)
[34]
  fractional inhibitory concentration index (FICI): 1
[35]
  MIC: 32 µg/mL
[36]
  inhibition: 86%
[37]
  MIC: 16 µg/mL
[38]
  MIC: > 512 µg/mL
[39]
  fractional inhibitory concentration index (FICI): 1.5
[40]
  MIC: 32 µg/mL
[41]
  MIC: 16 µg/mL
[42]
  MIC: 512 µg/mL
[29]
  MIC: 64 µg/mL (≈ 129 µM)
[43]
  IC50: 100 µM

From ChEMBL document CHEMBL5331050, “Spiro[benzoxazine-piperidin]-one derivatives as chitin synthase inhibitors and antifungal agents: Design, synthesis and biological evaluation” (Eur J Med Chem, 2022)
